The results in this text go back to patent EP2943187B1, “USE OF GLYCYL GLUTAMINE AGAINST DEPRESSION” (Uludag Universitesi Teknoloji Transfer Ofisi Ticaret ve …, priority 2013, dated 2014).

The structures appear in SMILES notation. Peptide text beside a SMILES is read from it.

In data set [1] the test system is serotonin output at the nucleus accumbency section of the brain. Briefly: Brain micro-dialysis, serotonin output. It is filed as in vivo, rats. The note with it: single intracerebroventricular 100 nmol dose, 2 hours of monitoring, versus saline; p<0.001. The method, then:
The source of the antidepressant effects of Gly-Gln, which is mentioned in the figure descriptions above, have been analyzed and shown in Figures 4 and 5. In Figures 4 and 5; the effect of Gly-Gln on the serotonin output at the nucleus accumbency section of the brain upon intracerebroventricular Gly-Gln injection can be seen. […] An increase in serotonin outputs can be observed in all time intervals throughout 2 hours of monitoring period following the Gly-Gln injection; however, no serotonin output could be observed from the rodents in the control group who had been administered saline injections by the same way. Serotonin, which is structurally a monoamine neurotransmitter, is a hormone, which makes people feel happy, energetic and lively. When, the subject matter hormone serotonin is deficient in people, they feel depressive, tired and boring. […] Furthermore, the word "Saline" indicated in Figure 4 and 5 means salty water. It is used for comparing with the tested medication by administering on the control group.

The next data set can be described thus: Storage stability. It counts as physicochemical. The method, then: After, it is diluted by saline; it can be stored in a refrigerator at +4°C between 24-48 hours. It can be stored in room temperature for 10-12 hours.
Another data set relates to GABA levels in the brain. Kind of data set: GABA levels in the brain after administration (unpublished data). It is filed as in vivo. The following applies: Gly-Gln administration; unpublished data from applicant's laboratory. The source says: This innovation is related with the use of glycyl-glutamine in the treatment and/or prophylaxis of depression disorder and/or anxiety, which meets all above-mentioned requirements, eliminates all disadvantages and provides some advantages. The purpose of the current invention is to use Glycyl-Glutamine (Gly-Gln) in the treatment and/or prophylaxis of depression and/or anxiety via its effects in the brain other than its metabolic products' (glycine and glutamine) separate effects. […] Glutamine exerts antidepressant effects by increasing gamma-aminobutyric acid (GABA) in the brain however Gly-Gln generates antidepressant effects by increasing serotonin levels in the brain.

Another data set relates to rodents. Kind of data set: Forced Swimming Test. It counts as in vivo, rats. The following applies: intracerebroventricular, 100 nmol/10 µl, n=12. The source says: It has been proven as a result of the tests performed on animals that Glycyl-glutamine is therapeutic on depression and anxiety disorders. These aforementioned studies have been performed by means of "the Forced Swimming Test" method, which is the most applied animal model, used in antidepressant treatment surveys. The forced swimming test had been developed by Porsolt et al., (1978) and it is the most applied animal model in depression surveys especially the antidepressant treatment surveys. […] After the same animal is placed in the same tank twenty-four hours after the first time, it is observed that the time passes until inactivity reduces. Inactivity is expressed as losing behaviors of trying to escape in other words "behavioral helplessness". The forced swimming test is a similar response to learned helplessness. The efforts spent for an escape comes to an end for the animal, which understands it is exposed to a stress it will not be able to escape. Thus, it can be understood by that test model whether the antidepressant medications, which are administered before the second administration, show antidepressant effects or not. In practice, the post-treatment behaviors of the animal change for reducing behavioral helplessness. The time passed until inactivity is extended by means of acute or short-term antidepressant treatments and total time of inactivity is decreased. […] Because, it is an easy to apply practice, this model is used extensively (Cryan et al., 2002).
In Figure 1, the effect of intracerebroventricular Gly-Gln injection on the first term of inactivity. When, Gly-Gln has been administered centrally, it has extended the time passed until first inactivity compared to the control animals. While, the time passed until first inactivity of the rodents which have been centrally administered saline (10 µl) has been 14,9 ± 2,8 seconds (n=14), the time passed until first inactivity of the rodent which have been applied Gly-Gln (100 nmol/10 µl) by that same way has been increased to 28,1 ± 6,1 seconds (n=12), (p<0,05).
In Figure 2, the effect of intracerebroventricular Gly-Gln injection on the total term of inactivity. When, Gly-Gln has been administered centrally, it has reduced the total time time of inactivity compared to the control animals. While, the total inactivity time of the rodents which have been centrally administered saline (10 µl) has been 229.4 ± 8.9 seconds (n=14), the time passed until first inactivity of the rodent which have been applied Gly-Gln (100 nmol/10 µl) by the same way has been increased to 172.5 ± 12.8 seconds (n=12), (p<0,001).
In Figure 3, the effect of intracerebroventricular Gly-Gln injection on the escalation and swimming times. […]

Take `NCC(=O)N[C@@H](CCC(N)=O)C(=O)O` [Gly-Gln, glycyl-glutamine] (H-Gly-Gln-OH): the “serotonin output at the nucleus accumbency section of the brain” value in data set [1] is on record as “extremely increased”. The “storage time, diluted by saline” value in the data set “Storage stability” (refrigerator at +4°C) fell in the range of 24 to 48 h; in “Storage stability” (room temperature), 10 to 12 h. The “storage time, non-diluted form” value in the data set “Storage stability” (refrigerator at -20°C) was “very long period of time”. The “GABA levels in the brain” value with GABA levels in the brain is “decrease”. Besides, the “time passed until first inactivity” value in the data set with rodents (saline control 14,9 ± 2,8 seconds (n=14), p<0,05) is given as 28,1 ± 6,1 seconds. For the same compound, the swimming time in the data set with rodents (saline control 26,7 ± 2,9 seconds (n=14), p>0.05) was 36,8 ± 4,3 seconds. In addition, the escalation time with rodents (saline control 43,9 ± 7,0 seconds (n=14)) was 90,8 ± 11,4 seconds. For the same compound, the total inactivity time with rodents (saline control 229.4 ± 8.9 seconds (n=14), p<0,001) is 172.5 ± 12.8 s.
